The numbers were not newly measured in patent US9549940B2, “Sustained-release formulations of topiramate” (Supernus Pharmaceuticals, Inc., priority 2006, dated 2017), which cites them from elsewhere.

The conditions of series [1]: room temperature.
The conditions of series [2]: oral administration of an immediate release dosage form.

Each structure is given as a SMILES string.

With `CC1(C)OC2[C@@H](CO[C@@]3(COS(N)(=O)=O)OC(C)(C)O[C@@H]23)O1` (stereo partly drawn) [topiramate, 2,3:4,5-Di-O-isopropylidene-beta-D-fructopyranose sulfamate], the “solubility of topiramate in water” value in series [1] is on record as “about 9.8 mg/ml”. Moreover, the “time of plasma drug concentration peak” value in series [2] was “approximately 2 hours”.
